Assay results published in patent publication US12497663B2, “Method of monitoring treatment” (LDN Pharma Limited, priority 2019, dated 2025).

Test system: CD3+ cells
Assay: Gene expression in CD3+ cells from CD14-ve PBMCs cultured with naltrexone (Illumina biochips)
Format: cell-based, human
Details: 4 h
Experimental: The RNA was then extracted from the cells using Trizol then isopropanol. The expression of the genes was measured using Illumina platform with biochips surveying the total human genome. […] The ratio of treated:untreated was calculated and the 25% change from untreated considered relevant.

[1] = ratio treated:untreated, 10 nM naltrexone
[2] = ratio treated:untreated, 10 uM naltrexone

O=C1CC[C@@]2(O)[C@H]3Cc4ccc(O)c5c4[C@@]2(CCN3CC2CC2)[C@H]1O5 [NTX, morphinan-6-one,17-(cyclopropylmethyl)-4,5-epoxy-3,14-dihydroxy-(5a)]
ACTB N/U-score (10 uM naltrexone): o (no change)
ALDH4A1 N/U-score (10 uM naltrexone): o (no change)
ASAP1 N/U-score (10 uM naltrexone): o (no change)
BCLAF1 N/U-score (10 uM naltrexone): o (no change)
BIRC3 N/U-score (10 uM naltrexone): o (no change)
CASZ1 N/U-score (10 uM naltrexone): o (no change)
CDC42SE2 N/U-score (10 uM naltrexone): o (no change)
CDKN2AIP N/U-score (10 uM naltrexone): o (no change)
DRAP1 N/U-score (10 uM naltrexone): D (reduction)
DYNLL2 N/U-score (10 uM naltrexone): o (no change)
EIF2S3 N/U-score (10 uM naltrexone): o (no change)
EIF3E N/U-score (10 uM naltrexone): o (no change)
EIF3M N/U-score (10 uM naltrexone): o (no change)
EIF4B N/U-score (10 uM naltrexone): o (no change)
EZR N/U-score (10 uM naltrexone): o (no change)
FRG1 N/U-score (10 uM naltrexone): o (no change)
H3F3A N/U-score (10 uM naltrexone): o (no change)
HIST1H4C N/U-score (10 uM naltrexone): o (no change)
HPCAL1 N/U-score (10 uM naltrexone): o (no change)
ITGB2 N/U-score (10 uM naltrexone): o (no change)
KCTD6 N/U-score (10 uM naltrexone): o (no change)
LSM5 N/U-score (10 uM naltrexone): o (no change)
MAP4K1 N/U-score (10 uM naltrexone): D (reduction)
MORF4L1 N/U-score (10 uM naltrexone): o (no change)
MTF1 N/U-score (10 uM naltrexone): o (no change)
MYLK N/U-score (10 uM naltrexone): o (no change)
NUCB1 N/U-score (10 uM naltrexone): o (no change)
OR10A6 N/U-score (10 uM naltrexone): o (no change)
PAH N/U-score (10 uM naltrexone): o (no change)
PDCD4 N/U-score (10 uM naltrexone): o (no change)
PECI N/U-score (10 uM naltrexone): o (no change)
PRPF8 N/U-score (10 uM naltrexone): o (no change)
PSME2 N/U-score (10 uM naltrexone): o (no change)
PVRL2 N/U-score (10 uM naltrexone): o (no change)
RASAL3 N/U-score (10 uM naltrexone): D (reduction)
S100A6 N/U-score (10 uM naltrexone): D (reduction)
SH3BGRL3 N/U-score (10 uM naltrexone): o (no change)
SPOCK2 N/U-score (10 uM naltrexone): o (no change)
WDR75 N/U-score (10 uM naltrexone): o (no change)
YWHAZ N/U-score (10 uM naltrexone): D (reduction)
ACTB LDN/UN [1]: 1.560
ALDH4A1 LDN/UN [1]: 1.691
ASAP1 LDN/UN [1]: 0.701
BCLAF1 LDN/UN [1]: 0.653
BIRC3 LDN/UN [1]: 0.703
CASZ1 LDN/UN [1]: 1.775
CDC42SE2 LDN/UN [1]: 0.590
CDKN2AIP LDN/UN [1]: 0.702
DRAP1 LDN/UN [1]: 1.253
DYNLL2 LDN/UN [1]: 0.702
EIF2S3 LDN/UN [1]: 0.702
EIF3E LDN/UN [1]: 0.647
EIF3M LDN/UN [1]: 0.613
EIF4B LDN/UN [1]: 1.576
EZR LDN/UN [1]: 1.563
FRG1 LDN/UN [1]: 0.614
H3F3A LDN/UN [1]: 0.632
HIST1H4C LDN/UN [1]: 0.667
HPCAL1 LDN/UN [1]: 1.515
ITGB2 LDN/UN [1]: 1.528
KCTD6 LDN/UN [1]: 0.700
LSM5 LDN/UN [1]: 0.639
MAP4K1 LDN/UN [1]: 1.294
MORF4L1 LDN/UN [1]: 0.698
MTF1 LDN/UN [1]: 0.676
MYLK LDN/UN [1]: 1.659
NUCB1 LDN/UN [1]: 1.483
OR10A6 LDN/UN [1]: 1.570
PAH LDN/UN [1]: 1.687
PDCD4 LDN/UN [1]: 0.672
PECI LDN/UN [1]: 0.675
PRPF8 LDN/UN [1]: 1.543
PSME2 LDN/UN [1]: 0.700
PVRL2 LDN/UN [1]: 1.483
RASAL3 LDN/UN [1]: 1.365
S100A6 LDN/UN [1]: 1.397
SH3BGRL3 LDN/UN [1]: 1.479
SPOCK2 LDN/UN [1]: 1.487
WDR75 LDN/UN [1]: 0.705
YWHAZ LDN/UN [1]: 1.287
ACTB NTX/UN [2]: 1.241
ALDH4A1 NTX/UN [2]: 1.184
ASAP1 NTX/UN [2]: 0.826
BCLAF1 NTX/UN [2]: 0.800
BIRC3 NTX/UN [2]: 0.918
CASZ1 NTX/UN [2]: 1.130
CDC42SE2 NTX/UN [2]: 0.796
CDKN2AIP NTX/UN [2]: 0.766
DRAP1 NTX/UN [2]: 0.723
DYNLL2 NTX/UN [2]: 0.865
EIF2S3 NTX/UN [2]: 0.756
EIF3E NTX/UN [2]: 0.910
EIF3M NTX/UN [2]: 0.757
EIF4B NTX/UN [2]: 1.123
EZR NTX/UN [2]: 1.079
FRG1 NTX/UN [2]: 0.773
H3F3A NTX/UN [2]: 0.758
HIST1H4C NTX/UN [2]: 0.836
HPCAL1 NTX/UN [2]: 0.849
ITGB2 NTX/UN [2]: 0.942
KCTD6 NTX/UN [2]: 0.774
LSM5 NTX/UN [2]: 0.839
MAP4K1 NTX/UN [2]: 0.726
MORF4L1 NTX/UN [2]: 0.772
MTF1 NTX/UN [2]: 0.771
MYLK NTX/UN [2]: 1.241
NUCB1 NTX/UN [2]: 1.148
OR10A6 NTX/UN [2]: 1.235
PAH NTX/UN [2]: 1.183
PDCD4 NTX/UN [2]: 0.779
PECI NTX/UN [2]: 1.043
PRPF8 NTX/UN [2]: 1.174
PSME2 NTX/UN [2]: 0.877
PVRL2 NTX/UN [2]: 1.102
RASAL3 NTX/UN [2]: 0.713
S100A6 NTX/UN [2]: 0.655
SH3BGRL3 NTX/UN [2]: 1.224
SPOCK2 NTX/UN [2]: 1.194
WDR75 NTX/UN [2]: 0.830
YWHAZ NTX/UN [2]: 0.736
